Measurements published in patent US8754036B2, “Method for treating neuropathic pain” (National University Corporation Nagoya University, priority 2007, dated 2014).

Test system: neurons from primary cortical nerve tissue
Experiment: Suppression of Rho kinase activation (neurite lengths, keratan sulfate, Y27632)
Type: cell-based, mice
Description: Next, participation of Rho kinase was investigated in order to investigate the action mechanism of keratanase II in the above Experiment 1. The neurons were seeded onto an 8-well chamber to which a test sample was applied by the same manner as in the method of Experiment 1. Twenty-four hours after starting the incubation of the neurons, 15 μM of Y27632 (Rho kinase inhibitor, Sigma) was added to the neurons followed by incubating for 24 hours more. After that, the chamber was fixed with 4% of paraformaldehyde and the neurons were identified by an immunohistochemical means with Neuronal Class IIIβ tubulin (TUJ1) antibody (COVANCE). The neurite lengths were measured of from 80 to 90 neurons per condition, an average value thereof was calculated and shown by a graph. The test sample was the following four types.
(1) that which was applied with 25 μg/mL of poly-L-lysine (Sigma; hereinafter, the same) followed by being applied with 10 μg/mL of laminin (BD Biosciences; hereinafter, the same).
(2) that which was applied with 25 μg/mL of poly-L-lysine followed by being applied with 10 μg/mL of laminin and 20 μg/mL of keratan sulfate (Seikagaku Corporation; hereinafter, the same).
(3) that which was applied with 25 μg/mL of poly-L-lysine followed by being applied with 10 μg/mL of laminin and 40 μg/mL of keratan sulfate. […]

| Compound | release of inhibiting action for elongation of neurite lengths induced by keratan sulfate (keratan sulfate on poly-L-lysine/laminin, Y27632 15 μM or Ks36 keratanase II 0.01 U/mL without Y27632) | effect on elongation of the neurite lengths (keratan sulfate 20 or 40 μg/mL on poly-L-lysine/laminin) |
| --- | --- | --- |
| C[C@@H](N)[C@H]1CC[C@H](C(=O)Nc2ccncc2)CC1 [Y27632] | released |  |
| keratan sulfate |  | induces the inhibition |
